This passage reports IC50 results from patent US20250230159A1, “FUSED HETEROCYCLIC COMPOUNDS AS MODULATORS OF RAS SIGNALLING” (Shenzhen Ionova Life Science Co., Ltd., priority 2022, published 2025).

For orientation: IC50 means the concentration needed to halve the response being measured.

Assay [1] has as its target KRAS-G12C/SOS1 interaction (Homo sapiens (Human), UniProt Q07889). Briefly: Protein-Protein Interaction (PPI) assay, SOS1-KRAS binding assay kit (HTRF). As for the experimental part:
This Example illustrates that exemplary compounds of the present invention blockade the interaction of SOS1 to KRAS protein.
The ability of a compound of Formula (I) to block the interaction of SOS1 to KRAS was measured using a SOS1-KRAS binding assay kit (CAT #63ADK000CB16PEG, Cisbio). Utilizing HTRF (Homogeneous Time-resolved Fluorescence) technology, the assay enables simple and rapid characterization of compound and antibody blockers in a high throughput format. The interaction between Tag1-SOS1 and Tag2-KRAS-G12C is detected by using anti-Tag1-Terbium antibody (HTRF donor) and anti-Tag2-XL665 antibody (HTRF acceptor). When the donor and acceptor antibodies are brought into close proximity due to SOS1 and KRAS-G12C binding, excitation of the donor antibody triggers fluorescent resonance energy transfer (FRET) towards the acceptor antibody, which in turn emits specifically at 665 nm. This specific signal is directly proportional to the extent of KRAS-G12C/SOS1 interaction.
The assay was carried according to the manufacturer's instructions. Compounds at an initial concentration of 10 mM in DMSO were first serially diluted on a 384-well plate using assay buffer at a ratio of 1:3 for a total of 9 concentrations with each of a volume of 20 μL. Blank buffer was included as the negative control. The final compound solution was in the buffer solution with 1% DMSO. Then, in each well of a 384-well plate, a solution of 2 μL compound solution, 4 μL tagged SOS1 and KRAS (G12C) protein stocks, respectively, and 10 μM GTP was incubated for 15 min. 10 μL mixture of […] antibody and anti-Tag1-Terbium antibody was introduced to each individual well. After 2 hours incubation at room temperature, fluorescence readout was measured with a Pelkin Elmer multiple plate reader VICTOR Nivo.
Excitation was from over a range of 245-395 nm, and emission from the donor (emission 1) was detected at […] and emission from the acceptor (emission 2) was detected at (606.5-623.5) nm. The HTRF ratio was calculated using the formula: (emission 1 @665 nm/emission 2 @620 nm)×10000. Thus, compounds blocking KRAS-G12C/SOS1 interaction will cause a reduction in HTRF signal ratio. The IC50 values were then calculated with the Graph pad Prism software.

The subject of assay [2] is pERK in Hela cells. Kind of assay: Phospho-ERK (p-ERK) assay in Hela cells. Type of assay: cell-based. Conditions: β-actin normalized. The protocol:
This Example illustrates that exemplary compounds of the present invention prevent KRas-mediated GTP nucleotide exchange mediated by SOS1 to inhibit KRas activity, thereby inhibiting the generation of the downstream effector pERK.
Hela cells (23,000/w) were seeded in a black clear flat bottom 96-well cell culture plate (Corning, #3904) and incubated at 37° C. overnight. At day 2, cells were dosed with compounds of Formula (I) with a 10 μM starting concentration and serially diluted 3× for a total of 9 concentrations. The cells were incubated for 1 hour with the compounds solubilized in DMSO at 37° C. Cells were immediately fixed by adding 100 μL of 8% formaldehyde to all wells in a fume hood and the plates were incubated for 1 hr at room temperature. The formaldehyde was discarded from the plates and washed 5 times and each time for 5 min with 200 μL of Triton Washing Solution (0.1% Triton in PBS) each time to permeabilize the cells. Cells were then blocked with 150 μL of Odyssey blocking buffer (LI-COR Biosciences #927-50010) at room temperature on a shaker. The blocking buffer was discarded and 50 μL of primary antibodies pERK (cell signaling Technology #4370; Rabbit, 1:500) and β-actin (AF5001; Mouse, 1:2000) diluted in Odyssey blocking buffer was added. The plates were incubated overnight at 4° C. on a shaker.
On day 3, the primary antibody solution was removed. Each plate was washed 5× times with 200 μL of 1×PBST (PBS+0.1% Tween 20) and incubated with 50 μL of secondary antibodies: Anti-Rabbit (LI-COR Biosciences #926-32211) and Anti-Mouse (LI-COR Biosciences #68070) at 1:1000 dilution in Odyssey blocking buffer at room temperature on a shaker for 1 hour (protected from light). The secondary antibody solution as removed and each plate was washed with PBST 5× times. Any liquid remaining was discarded and the plate was imaged using the Licor Odyssey machine according to the manufacturer's instruction, using a set focus length at 3.5 mm and both 800 nm and 700 nm filters. The 3-actin normalized scan values for each well were divided by the average of vehicle wells to get the % of p-ERK inhibition. The IC50 values were then calculated with the Graph pad Prism software. In general, p-ERK IC50 data are in line with the PPI IC50 data.

Setting [3] is: Homo sapiens, Table 1, 1 hour with compound.

Like-named read-outs stand apart in the source and are kept apart here. Some results are limits rather than exact numbers.

Sequence of KRAS-G12C/SOS1 interaction (Q07889 whole entry, stated change not applied): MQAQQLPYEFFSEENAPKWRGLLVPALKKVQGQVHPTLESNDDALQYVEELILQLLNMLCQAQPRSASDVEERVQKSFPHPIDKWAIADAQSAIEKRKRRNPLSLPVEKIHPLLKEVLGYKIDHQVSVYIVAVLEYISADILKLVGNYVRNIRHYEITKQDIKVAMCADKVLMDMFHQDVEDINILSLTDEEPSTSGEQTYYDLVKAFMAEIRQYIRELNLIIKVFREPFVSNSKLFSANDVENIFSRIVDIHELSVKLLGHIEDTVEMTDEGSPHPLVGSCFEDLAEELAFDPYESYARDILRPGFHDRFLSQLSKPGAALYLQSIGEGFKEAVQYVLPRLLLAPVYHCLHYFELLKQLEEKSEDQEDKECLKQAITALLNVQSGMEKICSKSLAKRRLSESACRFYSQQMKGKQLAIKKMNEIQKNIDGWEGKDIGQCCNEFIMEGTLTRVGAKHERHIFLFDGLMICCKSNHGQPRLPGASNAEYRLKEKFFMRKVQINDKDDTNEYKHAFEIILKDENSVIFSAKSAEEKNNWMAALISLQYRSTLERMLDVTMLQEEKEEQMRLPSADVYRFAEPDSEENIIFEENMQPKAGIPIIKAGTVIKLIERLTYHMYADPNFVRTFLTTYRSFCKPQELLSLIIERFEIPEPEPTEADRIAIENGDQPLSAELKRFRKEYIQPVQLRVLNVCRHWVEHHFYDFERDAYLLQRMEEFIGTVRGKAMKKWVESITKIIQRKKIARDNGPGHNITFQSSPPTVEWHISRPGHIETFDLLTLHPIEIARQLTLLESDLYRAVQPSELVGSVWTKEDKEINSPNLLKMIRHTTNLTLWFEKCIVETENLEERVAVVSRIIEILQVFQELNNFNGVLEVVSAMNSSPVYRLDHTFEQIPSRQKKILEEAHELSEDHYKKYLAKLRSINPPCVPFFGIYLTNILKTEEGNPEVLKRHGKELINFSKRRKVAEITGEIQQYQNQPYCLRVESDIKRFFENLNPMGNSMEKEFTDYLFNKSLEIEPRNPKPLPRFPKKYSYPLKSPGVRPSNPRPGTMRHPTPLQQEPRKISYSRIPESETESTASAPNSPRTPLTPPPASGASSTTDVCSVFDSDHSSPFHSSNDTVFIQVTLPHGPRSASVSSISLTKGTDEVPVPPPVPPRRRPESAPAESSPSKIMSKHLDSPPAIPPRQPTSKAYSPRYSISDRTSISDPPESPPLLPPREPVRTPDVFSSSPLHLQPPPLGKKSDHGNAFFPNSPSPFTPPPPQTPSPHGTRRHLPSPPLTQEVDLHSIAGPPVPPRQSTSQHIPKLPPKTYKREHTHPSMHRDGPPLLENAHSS

Regarding `C[C@@H](Nc1ncnc2c1cc(C(=O)N1C3CC1CN(C)C3)c1ncnn12)c1cccc(C(F)F)c1F` [Example 47], the figures for the IC50 in assay [1] (read-out: PPI Assay IC50) and in assay [2] (setting [3]) were under 100 nM and over 100 nM, respectively.

In the case of `Cc1nc(N[C@H](C)c2cccc(C(F)F)c2F)c2cc(C(=O)N(C)C)c3nncn3c2n1` [Example 50, (R)-4-((1-(3-(difluoromethyl)-2-fluorophenyl)ethyl)amino)-N,N,2-trimethyl-[1,2,4]triazolo[4′,3′:1,6]pyrido[2,3-d]pyrimidine-6-carboxamide], the concentration for half-maximal inhibition (IC50) is under 100 nM in assay [1] (read-out: PPI Assay IC50) and over 100 nM in assay [2] (setting [3]).

Turning to `Cc1nc(N[C@H](C)c2cccc(C(F)F)c2F)c2cc(C(=O)N3CC4(COC4)C3)c3nncn3c2n1` [Example 51], the IC50 is under 100 nM in assay [1] (read-out: PPI Assay IC50) and over 100 nM in assay [2] (setting [3]).

As to `Cc1nc(N[C@H](C)c2cccc(C(F)F)c2F)c2cc(C(=O)N(C)C)c3nnnn3c2n1` [Example 55, (R)-6-((1-(3-(difluoromethyl)-2-fluorophenyl)ethyl)amino)-N,N,8-trimethyltetrazolo[1′,5′:1,6]pyrido[2,3-d]pyrimidine-4-carboxamide], the IC50 was under 100 nM in assay [1] (read-out: PPI Assay IC50) and over 100 nM in assay [2] (setting [3]).

On to `Cc1nc(N[C@H](C)c2cccc(C(F)F)c2F)c2cc(C(=O)N3CCOCC3)c3nnnn3c2n1` [Example 58], for which the half-maximal inhibitory concentration (IC50) in assay [1] (read-out: PPI Assay IC50) and in assay [2] (setting [3]) was under 100 nM each time.

As to `Cc1nc(N[C@H](C)c2cccc(C(F)F)c2F)c2cc(C(=O)N3CCCC34CCOC4)c3nnnn3c2n1` (stereo partly shown) [Example 60], the half-maximal inhibitory concentration (IC50) in assay [1] (read-out: PPI Assay IC50) is under 100 nM; in assay [2] (setting [3]), over 100 nM.

`Cc1nc(N[C@H](C)c2cccc(C(F)F)c2F)c2cc(C(=O)N3CC4(COC4)C3)c3nnnn3c2n1` [Example 62]: the IC50 was under 100 nM in assay [1] (Table 1 (PPI IC50 < 100 nM), Tag1-SOS1 / Tag2-KRAS-G12C, HTRF, 10 μM GTP, read-out: PPI Assay IC50) and over 100 nM in assay [2] (Table 1, 1 hour with compound).

Turning to `Cc1nc(N[C@H](C)c2cccc(C(F)F)c2F)c2cc(C(=O)N3C4CC3CN(C)C4)c3nnnn3c2n1` [Example 66], the half-maximal inhibitory concentration (IC50) in assay [1] (read-out: PPI Assay IC50) is under 100 nM; in assay [2] (setting [3]), over 100 nM.

For `CC(=O)N1CCC(c2cc3c(N[C@H](C)c4cccc(C(F)F)c4F)nc(C)nc3n3cnnc23)CC1` [Example 67, (R)-1-(4-(4-((1-(3-(difluoromethyl)-2-fluorophenyl)ethyl)amino)-2-methyl-[1,2,4]triazolo[4′,3′:1,6]pyrido[2,3-d]pyrimidin-6-yl)piperidin-1-yl)ethan-1-one], the half-inhibitory concentration (IC50) in assay [1] (read-out: PPI Assay IC50) was under 100 nM; in assay [2] (setting [3]) it was over 100 nM.

On to `COCC(=O)N1CCC(c2cc3c(N[C@H](C)c4cccc(C(F)F)c4F)nc(C)nc3n3cnnc23)CC1` [Example 68], for which the figures for the half-maximal inhibitory concentration (IC50) in assay [1] (read-out: PPI Assay IC50) and in assay [2] (setting [3]) were under 100 nM and over 100 nM, respectively.

With `Cc1nc(N[C@H](C)c2cccc(C(F)F)c2F)c2cc(C3CCN(C(=O)N(C)C)CC3)c3nncn3c2n1` [Example 69], the values for the IC50 in assay [1] (read-out: PPI Assay IC50) and in assay [2] (setting [3]) were under 100 nM and over 100 nM, respectively.

Take `CCS(=O)(=O)N1CCC(c2cc3c(N[C@H](C)c4cccc(C(F)F)c4F)nc(C)nc3n3cnnc23)CC1` [Example 70]: the IC50 in assay [1] is over 100 nM; in assay [2] (Homo sapiens, Table 2, 1 hour with compound) it was over 100 nM.

For `Cc1nc(N[C@H](C)c2cccc(C(F)F)c2F)c2cc(C3CCN(CCS(C)(=O)=O)CC3)c3nncn3c2n1` [Example 71], the results for the IC50 in assay [1] (read-out: PPI Assay IC50) and in assay [2] (setting [3]) were under 100 nM and over 100 nM, respectively.

`Cc1nc(N[C@H](C)c2cccc(C(F)F)c2F)c2cc(N3CCOCC3)c3nncn3c2n1` [Example 74, (R)—N-(1-(3-(difluoromethyl)-2-fluorophenyl)ethyl)-2-methyl-6-morpholino-[1,2,4]triazolo[4′,3′:1,6]pyrido[2,3-d]pyrimidin-4-amine]: the 50% inhibitory concentration (IC50) in assay [1] (read-out: PPI Assay IC50) was under 100 nM; in assay [2] (setting [3]) it was over 100 nM.

`Cc1nc(N[C@H](C)c2cccc(C(F)F)c2F)c2cc(N3CCS(=O)(=O)CC3)c3nncn3c2n1` [Example 76]: the IC50 is under 100 nM in assay [1] (read-out: PPI Assay IC50) and over 100 nM in assay [2] (setting [3]).

For the molecule `C[C@@H](Nc1ncnc2c1cc(N1CCOCC1)c1nncn12)c1cccc(C(F)F)c1F` [Example 79], the IC50 in assay [1] (read-out: PPI Assay IC50) and in assay [2] (setting [3]) was under 100 nM each time.

`Cc1nc(N[C@H](C)c2cc(N)cc(C(F)(F)F)c2)c2cc(N3CCOCC3)c3nncn3c2n1` [Example 85]: the half-maximal inhibitory concentration (IC50) in assay [1] (read-out: PPI Assay IC50) and in assay [2] (setting [3]) was under 100 nM throughout.

On to `C[C@@H](Nc1ncnc2c1cc(N1CCOCC1=O)c1nncn12)c1cc(N)cc(C(F)(F)F)c1` [Example 86], for which the concentration for half-maximal inhibition (IC50) in assay [1] (read-out: PPI Assay IC50) and in assay [2] (setting [3]) was under 100 nM each time.

Take `C[C@@H](Nc1ncnc2c1cc(O[C@H]1CCOC1)c1nncn12)c1cccc(C(F)F)c1F` [Example 88]: the IC50 in assay [1] (read-out: PPI Assay IC50) and in assay [2] (setting [3]) was under 100 nM each time.

On to `Cc1nc(N[C@H](C)c2cccc(C(F)F)c2F)c2cc(N3CCOCC3)c3nnnn3c2n1` [Example 91, (R)—N-(1-(3-(difluoromethyl)-2-fluorophenyl)ethyl)-8-methyl-4-morpholinotetrazolo[1′,5′:1,6]pyrido[2,3-d]pyrimidin-6-amine], for which the IC50 in assay [1] (read-out: PPI Assay IC50) and in assay [2] (setting [3]) was under 100 nM each time.

Take `CC(=O)N1CCN(c2cc3c(N[C@H](C)c4cccc(C(F)F)c4F)nc(C)nc3n3nnnc23)CC1` [Example 92]: the 50% inhibitory concentration (IC50) in assay [1] (read-out: PPI Assay IC50) and in assay [2] (setting [3]) was under 100 nM each time.

As to `Cc1nc(N[C@H](C)c2cccc(C(F)F)c2F)c2cc(N3CCS(=O)(=O)CC3)c3nnnn3c2n1` [Example 93], the IC50 was under 100 nM in assay [1] (read-out: PPI Assay IC50) and over 100 nM in assay [2] (setting [3]).

Regarding `Cc1nc(N[C@H](C)c2cc(N)cc(C(F)(F)F)c2)c2cc(N3CCOCC3)c3nnnn3c2n1` [Example 95], the IC50 in assay [1] (read-out: PPI Assay IC50) and in assay [2] (setting [3]) was under 100 nM in each case.

Take `C[C@@H](Nc1ncnc2c1cc(N1CCS(=O)(=O)CC1)c1nnnn12)c1cccc(C(F)F)c1F` [Example 96]: the half-inhibitory concentration (IC50) in assay [1] (read-out: PPI Assay IC50) is under 100 nM; in assay [2] (setting [3]), over 100 nM.

In the case of `C[C@@H](Nc1ncnc2c1cc(N1CC(C(=O)N(C)C)C1)c1nnnn12)c1cccc(C(F)F)c1F` [Example 97], the IC50 was under 100 nM in assay [1] (read-out: PPI Assay IC50) and over 100 nM in assay [2] (setting [3]).

With `C[C@@H](Nc1ncnc2c1cc(N1CCOCC1)c1nnnn12)c1cccc(C(F)F)c1F` [Example 98], the IC50 in assay [1] (read-out: PPI Assay IC50) and in assay [2] (setting [3]) was under 100 nM each time.

Regarding `CC(=O)N1CCN(c2cc3c(N[C@H](C)c4cccc(C(F)F)c4F)ncnc3n3nnnc23)CC1` [Example 99], the half-maximal inhibitory concentration (IC50) in assay [1] (read-out: PPI Assay IC50) and in assay [2] (setting [3]) was under 100 nM throughout.

Turning to `CC(=O)N1CC=C(c2cc3c(N[C@H](C)c4cccc(C(F)F)c4F)nc(C)nc3n3cnnc23)CC1` [Example 100, (R)-1-(4-(4-((1-(3-(difluoromethyl)-2-fluorophenyl)ethyl)amino)-2-methyl-[1,2,4]triazolo[4′,3′:1,6]pyrido[2,3-d]pyrimidin-6-yl)-3,6-dihydropyridin-1(2H)-yl)ethan-1-one], the IC50 is under 100 nM in assay [1] (read-out: PPI Assay IC50) and over 100 nM in assay [2] (setting [3]).

Turning to `CC(=O)N1CC=C(c2cc3c(N[C@H](C)c4cccc(C(F)F)c4F)ncnc3n3cnnc23)CC1` [Example 101], the IC50 in assay [1] (read-out: PPI Assay IC50) and in assay [2] (setting [3]) was under 100 nM each time.
